The values that follow come from patent publication US9580465B2, “Tissue protective peptides and peptide analogs for preventing and treating diseases and disorders associated with tissue damage” (ARAIM PHARMACEUTICALS, INC., priority 2008, dated 2017).

For one data set, the system named is histamine. Description: Histamine induced wheal formation, peptide given at time of challenge. Type of data set: in vivo, Sprague-Dawley rats. The following applies: 30 μg/kg at time of histamine challenge. Here is the method:
Under isoflurane anesthesia, 12 Sprague-Dawley rats' abdomens were shaved and depilated. Each rat was then injected intravenously (via internal jugular) with a dilute solution of Evans Blue (30 mg/ml in saline, 1 ml/kg bw). After 5 minutes, 6 small doses of histamine (Histamine diphosphate, 20 microliters administered intradermally) in a rectangular pattern on each rat's abdomen. After fifteen minutes, when the wheal reaches its maximum size the wheal is photographed and the blister area was determined by digital planimetry. To test the efficacy of various peptides, the peptide of interest was administered to the rats intravenously shortly after the histamine injection.
Rats received either saline, Peptide IY (30 μg/kg), Peptide ID (30 μg/kg), or Peptide IW (30 μg/kg) at time of histamine challenge.
Rats received either saline, peptide JA (30 μg/kg), peptide IZ (30 μg/kg), peptide IW (30 μg/kg) or peptide ID (30 μg/kg) at time of histamine challenge.

Data set [1] deals with recall of previously experienced objects. In words: Novel object recognition paradigm. It is filed as in vivo, Wistar rats. The method, then: A novel object recognition paradigm in rats was used to evaluate their recall of previously experienced objects. Specifically, adult Wistar rats were exposed to novel test objects and then reexposed to them 24 hours later. Animals were divided into 5 groups receiving either: (1) vehicle, (2) galantamine (3 mg/kg i.p.) 1 hr before testing as a positive control, (3) Peptide ID (24 nmol/kg bw i.p.) 3 hours after the first exposure to the novel objects, (4) Peptide ID (24 nmol/kg bw i.p.) twice daily for 5 days before training and continued through the day immediately after training, and (5) Peptide ID (24 nmol/kg bw i.p.) 1 hour before first exposure to the novel object.

The subject of data set [2] is 9 L/LacZ gliosarcoma cells. Description: Cortical tumor implant. It is filed as in vivo, CD fisher rats. The following applies: 30 μg/kg i.p. daily for 25 days following implantation; FIG. 12. Here is the method:
A cortical tumor implant study was conducted in accordance with the protocol of Lampson et al. Cancer Res. 53:176-82:1993 to determine the effect of Peptide ID on the growth of the tumor.
In accordance with the protocol, male CD fisher rats were anesthetized and their right scalp was shaved and washed with disinfectant. A small incision was then made in the scalp overlying the right temporal cerebral cortex. A 1 mm hole was drilled through the calvarium, without puncturing the dura matter. Under aseptic conditions, living 50,000 9 L/LacZ gliosarcoma cells in 5 μl was slowly injected through a 22 gauge needle attached to a precision Hamilton syringe. Bone wax was then applied to the trephanation site, the skin was sutured and a prophylactic dose of antibiotic was administered i.p. Control rats were provided with saline injections i.p. daily. The rats treated with Peptide ID received daily injections of 30 μg/kg i.p. daily for a period of 25 days. At 25 days following implantation, the animal was anesthetized and the brain perfused-fixed with 2% paraformaldehyde. The brain was then removed and cut on a brain matrix device into coronal sections 1 mm thick and the extent of tumor mass was determined by planimetric methodology.

The test system of data set [3] is middle cerebral artery occlusion. Description: Middle cerebral artery occlusion model. It is filed as in vivo, Sprague Dawley rats. The settings on record: 2 μg/kg bw i.v. upon reperfusion, then three injections at 2-hour intervals. Here is the method:
Sprague Dawley rats (8 per group) are subjected to the following MCAO protocol Surgery was performed in accordance with the teachings of Brines et al, 2000, PNAS USA 97:10526-10531 (hereby incorporated by reference in its entirety. Briefly, the rats are anesthetized with chloral hydrate (400 mg/kg-bw, i.p.), the carotid arteries were visualized, and the right carotid was occluded by two sutures and severed. A burr hole adjacent and rostral to the right orbit allowed visualization of the middle cerebral artery (“MCA”), which was cauterized distal to the rhinal artery. To produce a penumbra (border zone) surrounding this fixed MCA lesion, the contralateral carotid artery was occluded for 1 hour by using […] provided by a fine forceps and then re-opened.
The rats were administered saline, Peptide ID as a single i.v. dose (2 μg/kg bw), or Peptide IX, […], SEQ ID NO: 301), a scrambled version of Peptide IC, SEQ ID NO: 281, as a single Lv. dose (2 μg/kg bw) upon reperfusion, followed by three additional injections at 2-hour intervals. For assessment of injury, rats are subjected to behavioral testing or the volume of the lesion is determined by tetrazolium staining of brain sections performed 24 hours post surgery in accordance with the previously noted protocol.
The volume of the lesion was then determined by tetrazolium staining of brain sections performed 24 hours post surgery.
Rats were also tested in a foot fault behavioral protocol. Rats were tested on an elevated stainless steel grid floor 30 cm×30 cm with grid size of 30 mm according to the protocol of Markgraf et al., 1992, Brain Research 575:238-246 (hereby incorporated by reference in its entirety). When placed on the grid, a rat would attempt to move around and occasionally place a foot, rather than on the grid, through a grid opening (“foot fault”). The number of foot faults was measured for a 1 minute period.
The number of foot faults is indicative of the cognitive impairment of the rats due to the MCAO, the fewer the number of foot faults the less cognitive impairment.

The nature of data set [4]: Erythropoietic and hematopoietic effects, 28 days i.v. in rabbits. The settings on record: 30, 90, 300 μg/kg per dose i.v. twice daily for 28 days, baseline vs. day 29. Type of data set: in vivo, New Zealand White rabbits. The method, then: Further the erythropoietic and hematopoietic affects of Peptide ID were evaluated in rabbits. Blood samples were taken of all rabbits prior to the initiation of the study to establish the hematological baseline for the animals. Peptide ID was administered twice daily i.v. to New Zealand White rabbits for 28 days. For this study, six males and females were assigned to groups 1 and 4, and four males and four females were assigned to groups 2 and 3. Group 1 received 0, group 2 received 30 μg (24 nmol/kg bw), group 3 received 90 μg/kg (72 nmol/kg bw); and group 4 received 300 μg/kg (240 nmol/kg bw) per dose Peptide ID in PBS by bolus i.v. administration. Blood samples to assay for hematological variables were collected on day 29.

Where “and” joins values, the source holds several entries; their conditions need not be identical. Equal values may be shown once. Entries after “also recorded” stand apart in the source; their conditions may differ. Square brackets hold non-standard residues; d marks the D form. pGlu = O=C1CC[C@@H](C(=O)O)N1

With “UEQLERALNSS ([pGlu]EQLERALNSS-OH; also: acetate/ammonium mixed salt) [Peptide ID, first glutamine replaced with pyroglutamate]”, the “wheal area (lesion area)” value in the data set on histamine (FIG. 18) was “about 0.35 cm^2”; in the data set on histamine (FIG. 19), ~0.35 cm^2 and 0.4 cm^2. Besides, the “recognition of the novel objects” value was “increased the rats recognition of the novel objects” in data set [1] (galantamine 3 mg/kg of bw, Peptide ID 24 nmol/kg of bw at various time points, FIG. 9); “improved recognition of the novel objects” in data set [1] (group 3: 24 nmol/kg bw i.p. 3 hours after the first exposure to the novel objects); “improved recognition of the novel objects” in data set [1] (group 4: 24 nmol/kg bw i.p. twice daily for 5 days before training and through the day after training). The “relative volume of cortical tumor” value in data set [2] is reported as “no growth in the tumor volume; also recorded: no increase in the relative volume of the tumor”. The “infarct volume (volume of lesion)” value in data set [3] (24 hours post surgery, tetrazolium staining) came out at 225±20 mm^3. Further, the “number of foot faults in 1 minute period” value in data set [3] (after MCAO, FIG. 5) is listed as 11.2±1.1 foot faults. Moreover, in data set [4] (FIG. 3A), the hemoglobin concentration entry is recorded as “no difference; also recorded: no effect”. Also, in data set [4] (FIG. 3B), the hematocrit result is “no difference; also recorded: no effect”. Besides, the platelet count entry in data set [4] (FIG. 3C) is recorded as “no difference; also recorded: no effect”.
